Test results as given in patent US20120003339A1, “COMPOSITIONS AND METHODS FOR CONTROLLING BLOOD GLUCOSE LEVELS” (priority 2010, published 2012).

What was measured:
Assay type in all cases: in vivo, human
[1] = Example I: blood glucose levels and side effects in a subject with type 2 diabetes; conditions: person, blood glucose 17 to 19 mmol/L at diagnosis, first prescribed drug
[2] = Example II: morning (fasting) and two-hour after eating blood glucose readings, A1c and side effects in a subject with type 2 diabetes; conditions: 500 mg once a day
Method: A subject had been diagnosed with type 2 diabetes. Their fasting glucose reading was 11.6 mmol/L and A1c was 8.9%. Due to arthritis in their knee, exercise was not an option. […] They were prescribed 500 mg of Ratio-Metformin once a day. […] According to the endocrinologist, the subject's morning readings (fasting blood glucose levels) were in the range from 8.1 to 10.8 mmol/L, and their two-hour after eating readings were 10 to 13.8 mmol/L.
Due to the adverse side effects of Metformin, the subject decided to stop taking the prescribed daily Metformin and replace it with the composition and method of the present invention. […]
The first cycle was about three months in length. […] Within a week that the subject was treated with the method of the invention, their morning readings were in the 4 to 6.5 mmol/L range and their two hours after eating range were well below 9 mmol/L. It should be noted that, for three weeks during this period, the patient was on vacation in France, enjoying fine French food and wine. A month after finishing the first cycle, the subject took a second fasting sugar test and a A1c test, the readings were 6.6 mmol/L and 6%, respectively.
The subject was treated with three cycles of the composition and method of the present invention. […] Their morning readings were in the range of 4.3 to 6.5 mmol/L, and their two hour after eating readings were in the range of 6 to 8.5 mmol/L. […]

[3] = Example III: blood glucose levels in a morbidly obese subject with type 2 diabetes; conditions: person, 380 lb, on traditional medication
Method: A subject weighed 380 lb was diagnosed with type 2 diabetes and was considered morbidly obese. The subject was prescribed Metformin. With traditional medication their blood glucose levels were at about 19 mmol/L, well above the normal range. Although the subject was considered for gastric bypass surgery, their medical doctors would not operate because their blood glucose could not be controlled.
The subject started taking 25 mg each of Gudmar, Kalijiri, Kariyatu, and Neempan tablets three times a day. Two weeks after the subject started the taking the herbal composition of the invention, the subject's blood glucose levels had dropped to 5.5 mmol/L, within the normal range. As a result, the subject was able to proceed with the surgery.

## CN(CCOc1ccc(CC2SC(=O)NC2=O)cc1)c1ccccn1 (stereo not shown) [Avandia, rosiglitazone]
[1]
  blood glucose levels (effect in words): did not reduce their blood glucose levels to the normal range

## CN(C)C(=N)N=C(N)N [Metformin]
[2]
  side effect (in words): left them feeling confused, “in a fog.”
[2]; fasting glucose 11.6 mmol/L and A1c 8.9% at diagnosis
  blood glucose levels (effect in words): did reduce their blood glucose levels
[3]
  blood glucose levels: about 19 mmol/L
